According to patent US20070179110A1, “EXPRESSION OF IMMUNOGENIC SUBSTANCES” (Mayo Foundation for Medical Education and Research, priority 1997, published 2007):

Legend:
[1] = test system: chTCR gene expression; assay: Regulation of surface chTCR expression by tetracyclines in JLAV12S (pLAV12-transfected Jurkat) cells, FACS; assay type: cell-based, human; conditions: for surface chTCRs down-regulated: 1 μg/ml; for surface chTCRs down-regulated / concentration for maximal repression: 48 hours
Method: (§1) The Jurkat T cell line (clone E6-l) was maintained in RPMI 1640 supplemented with 10% foetal calf serum (FCS), 2 mM L-glutamine, 100 U/ml penicillin, 100 μg/ml streptomycin and 25 mM HEPES buffer (all from GIBCO-BRL, Gaithersburg, Md.), referred to as complete medium (CM). To generate stable cell lines Jurkat cells were transfected with linearized plasmid DNA (10 μg) by electroporation, at […] and 960 μF, as described previously (13). Transfectants were selected in CM supplemented with 0.4 mg/ml of hygromycin B (Calbiochem, San Diego, Calif.). Stable cell lines were established after 3-4 weeks and analyzed by FACS for expression of the chTCR. To select a population of chTCR ζ expressing cells, stable Jurkat cells transfected with the linearized pLAV12 or pCEP4.aNIP.TCR ζ derived plasmid fragments were FACS sorted (see below). The resultant populations were cloned twice by limiting dilution and screened for protein expression by flow cytometry.
(§2) Expression of cell surface proteins was performed by standard direct immunofluorescence as described (14) using saturating amounts of FITC-conjugated antibodies. Dead cells were excluded from analysis using a combination of propidium iodide and forward light scatter. Appropriate FITC isotype-matched irrelevant Abs were used in all experiments. The samples were analysed with a FACScan® (Becton Dickinson, Mountain View, Calif.). A minimum of 20,000 cells was analysed for each sample. Subsequent re-analysis of data was performed using the CELLQuest software (version 1.2) (Becton Dickinson). Additionally, cells stained with FITC-conjugated goat antisera to mouse λ light chain were sorted under sterile conditions on a cell sorter (FACScalibur, Becton Dickinson).
To study the time-course of inactivation of gene expression, JLAV12S cells were analysed at different times after addition of the antibiotics at 1 μg/ml (FIG. 2B).
(§3) A dose-response curve of gene repression was determined using different concentrations of Tet or Dox. After 48 hours of treatment, the cells were harvested and the expression of the chTCR was studied by FACS analysis.
(§4) Stably transfected uncloned (JLAV12S, left hand column) and cloned (1F5, middle column; and 2E11, right hand column) Jurkat cell populations were cultured for 48 hours in the presence of different concentrations (0 ng/ml top row, 0.1 ng/ml second row, 1 ng/ml third row, and 10 ng/ml bottom row) of Tet (broken line) or Dox (solid line) and the surface expression of scFv-TCR ζ molecules was examined. Negative controls (FITC-conjugated goat antisera to mouse IgG) are overlaid (filled curve). The fluorescence channel number is plotted along the x axis, and the y axis represents the relative cell number.

[2] = test system: chTCR gene expression; assay: Regulation of surface chTCR expression in cloned pLAV12 transfectants (1E5/1F5 and 2E11), FACS; assay type: cell-based, human
Method: as §1, §2
The selected population of pLAV12 transfectants (JLAV12S) was then cloned by limiting dilution and two subclones expressing the chTCR at low (2E11) and intermediate (IF5) levels (FIG. 3) were selected for further study.
as §3, §4

[3] = test system: JN3S cells; assay: IL-2 production of JN3S cells stimulated with iNIP10-BSA; assay type: cell-based, human; conditions: doxycycline at a concentration of less than 1 μg/ml
Method: (§5) Subsequently the cells were washed, counted and stimulated (10^5/well) in triplicate with plastic-immobilised NIP10-BSA conjugates (iNIP10-BSA) or plastic immobilised anti-CD3E mAb (ianti-CD3) in fresh CM alone or in the presence of the drugs (12). The plates were incubated at 37° C. in 5% CO2. After 20 hours supernatants were harvested and assayed for IL-2 activity using an ELISA kit (Genzyme Diagnostics, Cambridge, Mass.).
The inventors next determined whether tetracycline-mediated suppression of the chTCR could induce a reversible state of antigen unresponsiveness in the transfected Jurkat cells. JLAV12S and JN3S cells were preincubated for 48 hours in increasing concentrations of Dox and Tet and then stimulated with immobilized NIP-BSA, following which their IL-2 production was measured.
FIGS. 5A and 5B are bar charts showing IL-2 production (in pg/ml) by transfected JLAV12S (5A) or JN3S (5B) cells stimulated with iNIP10-BSA in the absence or presence of Tet or Dox. Cells were preincubated for a 48 hours period in the absence or presence of the drugs (at the indicated concentration in ng/ml), washed and stimulated (10^5/well) with plastic immobilised NIP10-BSA conjugates (50 μg/ml) in fresh CM alone (solid bar) or in the presence of Tet (shaded bars) or Dox (open bars) at the indicated concentrations. One of two similar experiments is shown.

[4] = test system: Jurkat cells; assay: Anti-CD3ε induced IL-2 secretion of Jurkat cells (IL-2 release assay); assay type: cell-based; conditions: Homo sapiens, 1 μg/ml, not shown
Method: as §5

[5] = test system: JLAV12S and JN3S cells; conditions: 1 μg/ml, 48 hours; data not shown

| SMILES | surface chTCRs down-regulated ([1]; JLAV12S cells) [%] | concentration for maximal repression ([1]; all the analysed cell lines) | concentration of maximum repression ([1]; in our system) [ng/mL] | level of chTCR as % of its maximal expression ([2]; 1E5 clone) | level of chTCR as % of its maximal expression ([2]; 2E11 clone) [%] | effect on IL-2 production upon stimulation with iNIP10-BSA conjugates [3] | concentration for maximal repression ([1]; JLAV12S cells) | concentration at which expression of chTCRs was maximally repressed ([2]; clonal populations 1E5 and 2E11, 48 hours) [pg/mL] | inhibition at 1 µg/mL [4] [%] | changes in cell viability [5] |
| --- | --- | --- | --- | --- | --- | --- | --- | --- | --- | --- |
| CN(C)[C@@H]1C(O)=C(C(N)=O)C(=O)[C@@]2(O)C(O)=C3C(=O)c4c(O)cccc4[C@@](C)(O)[C@H]3C[C@@H]12 [tetracycline] | 90 | greater than or equal to 10 ng/ml | 10 | about 10% | ~20 | no inhibitory effect | – | – | – | – |
| C[C@H]1c2cccc(O)c2C(=O)C2=C(O)[C@]3(O)C(=O)C(C(N)=O)=C(O)[C@@H](N(C)C)[C@@H]3[C@@H](O)[C@@H]21 [doxycycline] | 90 | – | – | about 10% | ~20 | no inhibitory effect | greater than or equal to 1 ng/ml | 100 | 25 | No changes |
